# Key:
# [1] = Solubility test in distilled water; type: physicochemical; conditions: thermodynamic from solid
# [2] = molecular target: T1, bovine sperm-derived β-D-galactosidase (Bos taurus, UniProt Q58D55); experiment: Measurement of acidic β-galactosidase inhibitory activity (4-methylumbelliferyl substrate, fluorescence); type: biochemical; conditions: 0.2 M acetate buffer pH 4.4, 25° C., 30 minutes; read-out: 50% Inhibition concentration (IC50 value)
# T1 construct: bovine sperm-derived β-D-galactosidase (manufactured by Signa); purchased Sigma; host or cells: bovine sperm (tissue-derived)
# T1 sequence (Q58D55 28-653): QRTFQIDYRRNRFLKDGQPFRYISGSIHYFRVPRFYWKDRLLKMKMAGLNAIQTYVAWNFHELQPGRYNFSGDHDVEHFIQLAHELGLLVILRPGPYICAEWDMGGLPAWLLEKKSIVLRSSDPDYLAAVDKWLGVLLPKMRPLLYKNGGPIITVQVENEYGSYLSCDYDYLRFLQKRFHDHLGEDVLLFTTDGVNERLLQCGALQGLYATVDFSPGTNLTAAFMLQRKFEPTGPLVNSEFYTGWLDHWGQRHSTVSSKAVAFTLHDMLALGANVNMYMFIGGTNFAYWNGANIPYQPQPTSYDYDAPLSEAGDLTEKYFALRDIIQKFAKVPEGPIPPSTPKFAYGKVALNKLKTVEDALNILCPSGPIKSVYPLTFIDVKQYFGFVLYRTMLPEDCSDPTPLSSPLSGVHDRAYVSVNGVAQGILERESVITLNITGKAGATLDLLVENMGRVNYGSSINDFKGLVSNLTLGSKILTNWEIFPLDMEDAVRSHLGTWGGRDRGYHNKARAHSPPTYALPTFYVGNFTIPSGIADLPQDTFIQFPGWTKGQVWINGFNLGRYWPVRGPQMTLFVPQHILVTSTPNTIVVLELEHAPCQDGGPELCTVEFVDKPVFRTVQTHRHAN
# Description: Each of Substances A-2 to 7 of the invention dissolved in water for injection, to which DMSO had been added and dissolved therein, if necessary, was diluted with a 0.2 M acetate buffer (pH 4.4) to give a concentration of 0.05, 0.125, 0.25, 0.5, 1.0, 2.5 or 5.0 μM and added at 25 μl into a 96 well microplate. Then, a 0.2 M acetate buffer (pH 4.4) solution of bovine sperm-derived β-D-galactosidase (manufactured by Signa) was added at 25 μl, and 4-methylumbelliferyl-β-D-galactopyranoside (10 μM) was further added as a fluorescence substrate at 50 μl, followed by incubation at 25° C. for 30 minutes. Then, the reaction was stopped by adding 100 μl of 2 M Na2CO3, and an amount of 4-methylumbelliferone released by the enzyme reaction (fluorescence intensity) was measured (excitation wavelength 355 nm, measuring wavelength 460 nm) by a fluorescence reader (product name; ARVOSX manufactured by WALLAC). An amount of the 4-methylumbelliferone released at the time of not adding the inhibitor was defined as 100%, and quantitative change in the 4-methylumbelliferone formed by addition of each substance to be evaluated was relatively evaluated. In addition, as the 50% inhibition concentration (IC50 value), the concentration of each substance of the invention which reduces 50% of the concentration of 4-methylumbelliferone at the time of un-adding each substance of the invention was calculated from an inhibition curve.
Structure (SMILES),"solubility ([1]; distilled water, water, 24° C.) [mg/mL]",IC50 [2] [nM],"solubility ([1]; 19° C., distilled water added to 5.4 mg of sample) [mg/mL]"
CCCCCCCCN[C@@H]1C=C(CO)[C@H](O)[C@H](O)[C@H]1O [Substance A-2],≥ 300,476,–
CCCCCCCCCCN[C@@H]1C=C(CO)[C@H](O)[C@H](O)[C@H]1O [Substance A-3],–,301,–
CCCCCCCCCCCCN[C@@H]1C=C(CO)[C@H](O)[C@H](O)[C@H]1O [Substance A-4],–,1430,–
CCCCCCCCCCCCCCN[C@@H]1C=C(CO)[C@H](O)[C@H](O)[C@H]1O [Substance A-5],–,2690,–
CCCCCCCCCCCCCCCCCCN[C@@H]1C=C(CO)[C@H](O)[C@H](O)[C@H]1O [Substance A-6],–,1790,–
CCCCCCCCNC1C=C(CO)C(O)C(O)C1O (stereo not shown) [Substance B-2],–,–,> 108
